Assay results taken from patent US5213788A, “Physically and chemically stabilized polyatomic clusters for magnetic resonance image and spectral enhancement” (priority 1991, dated 1993).

Assays:
malignant breast tumor = settings: by 30 minutes postcontrast; cited from earlier work
[1] = small-molecular contrast agents; cited from earlier work
[2] = usually; cited from earlier work
[3] = Blood and total body clearance; format: in vivo
tumor interstitium = settings: in vivo; cited from earlier work
[4] = tested on: BRO-strain human malignant melanomas; experiment: MR imaging of human malignant melanoma xenografts; format: in vivo, human tumor in Swiss nude mice
Method: The strong paramagnetic metal ion, gadolinium (Gd^+3), was chelated stoichiometrically to DTPA-Dextran 70 polymer, whose preparation is described in Example 1, paragraph 2 (improved formulation). Swiss nude mice were inoculated with BRO-strain human malignant melanomas, and these were allowed to grow to a 1-1.5 cm diameter. Moderately T1-weighted MR imaging (TR=500 msec, TE=40 msec) was performed in a standard Diasonics™ medical imager and a 30-cm RF head coil, before and after intravenous injection of equivalent doses of Gd-DTPA-Dextran-70 (0.03 mmol Gd/kg) or Gd-DTPA (0.1 mmol/kg) contrast agent. […] It will also be recognized that much lower doses of the stronger superparamagnetics (including doses below about 0.01 mmol/kg, versus 0.1 mmol/kg for Gd-DTPA) can be used to obtain effective MRI contrast enhancement; and that much faster, more heavily T1-weighted pulse sequences can be implemented in the presence of intramolecularly superparamagnetic polyatomic complex-carrier polymer conjugates or paired-ion complexes.

CBA/J mice = experiment: Tetany / toxicity following intravenous injection; format: in vivo; settings: 10 mg/25 gm body weight
[5] = tested on: VX2 carcinomas of the right hind limb; experiment: Tissue platinum content by atomic absorption after selective intraarterial perfusion; format: in vivo; settings: 15 mg cisplatin per rabbit intraarterially over 15 minutes
Method: (§1) Additional documentation for maintenance of the cisplatin-carrier paired-ion complex in vivo was obtained as follows. […] Animals were sacrificed at 15 minutes, and the tumors and organs were homogenized extracted and analyzed by atomic absorption for tissue platinum concentrations, as shown in Table 1.

[6] = Complexation of exogenously added calcium ions (ionized calcium analyzer); format: binding
red cells = settings: cited from earlier work
VX2 carcinomas = experiment: Histochemical platinum stain of tumor tissues after intraarterial perfusion; format: in vivo, rabbit; settings: selective arterial perfusion
Method: At 5 to 15 minutes postinjection, the animals were sacrificed, their lungs removed and fixed with intratracheal buffered formalin, tissue sections cut at 8 microns thickness, and the sections stained using a newly devised method for platinum which comprises a microwave-augmented iron-type stain (60° C.×2 minute×3 cycles) using a 1:1 mixture of 2% ferriferrocyanide reagent and 4% HCl. […] To those skilled in the art, additional evidence for selective lung localization, was obtained by injecting intravenously, analogous (subembolizing) heparincoated small microparticles containing encapsulated amphotericin B, into identical mice, homogenizing the lungs, and documenting an 8-fold increment in drug levels over native amphotericin B (deoxycholate formulation, Fungizone; Squibb) recovered at 1 to 3 hours postinjection.
as §1
Additionally, histochemical platinum stains were performed on the tumor tissues, as described in Example 7.
Microinhomogeneities of tissue heating represent a major problem in hyperthermia treatment of tumors. […]

gadolinium diethylenetriamine pentaacetic acid dimeglumine [Gd-DTPA dimeglumine]
Tumor fading, in words (malignant breast tumor): almost complete fading (tumor clearance)

gadolinium diethylenetriamine pentaacetic acid [Gd-DTPA]
Initial biodistribution, share of total body water [1]: ca. 35% | Retained fraction [2]: less than 0.5% | Blood clearance t1/2 [3]: 20 min | Retention in tumor interstitium (tumor interstitium): 10 to 45 min | Fading of tumor enhancement ([4]; by one hour, 0.1 mmol/kg): completely faded | Time to begin to optimally enhance the tumors ([4]; intravenous, Gd-DTPA-dextran 0.03 mmol Gd/kg, Gd-DTPA 0.1 mmol/kg): 10 min

Cisplatin-DTPA-Dextran (70,000 MW) [DTPA-dextran cisplatin]
Tetany / toxicity following intravenous injection (CBA/J mice): elimination of tetany | Platinum content, Kidney [5]: 2.92 ng/mg of tissue, wet weight | Platinum content, Liver [5]: 3.47 ng/mg of tissue, wet weight | Platinum content, Blood ([5]; Ipsilateral): 2.14 ng/mg of tissue, wet weight | Platinum content, Muscle ([5]; Ipsilateral): 0.29 ng/mg of tissue, wet weight | Platinum content, Tumor ([5]; Ipsilateral): 10.81 ng/mg of tissue, wet weight | Complexation of exogenously added calcium ions by the DTPA groups [6]: reduction in the complexation of exogenously added calcium ions

[O]=[51Cr](=[O])([O-])[O-] [^51 Chromium, ^51 CrO4^-2]
Average rate of elution from red cells (red cells): 0.93 % per day

N.N.[Cl][Pt][Cl] [cisplatin, cis-dichlorodiamine platinum]
Intracellular tumor-cell platinum staining (VX2 carcinomas): aggregated staining was absent
